Patent publication US9770026B2, “Substituted pyrimidine compound and uses thereof” (Shenyang Sinochem Agrochemicals R&D Co., Ltd., priority 2012, dated 2017)

Assays:
wheat powdery mildew = assay: protectant activity in vivo against wheat powdery mildew
corn rust = assay: protectant activity in vivo against corn rust
rice blast = assay: microbe, parasite or virus in culture; assay type: cell-based; conditions: Pyricularia oryzae, read-out: inhibition rate against rice blast, 25 ppm, in vitro
[1] = system: Green peach aphids (Myzus Persicae Sulzer); assay: bioactivity test against green peach aphid, airbrush foliar spray; assay type: in vivo; conditions: death rate after 48 hrs
Procedure, shortened: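 Death rate was scored at 48 hrs, held at 25±1 C and 60±5% RH, following airbrush foliar spray (0.5 mL, 10 psi) onto cabbage leaf discs bearing about 15-30 aphids. Test solutions: compound dissolved in 1:1 acetone:methanol, brought to concentration with 0.1% tween 80 water.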

carmine spider mite = assay: bioactivity test against carmine spider mite, airbrush spray; assay type: in vivo; conditions: mortality after 72 hrs
Procedure, shortened: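 Broadbean seedlings infested with adult mites were sprayed with compound (acetone/methanol stock diluted in 0.1% Tween 80 water) by airbrush at 0.7 kg/cm^2, 0.5 ml. Three replicates were run. Mortality was scored after 72 hrs.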

armyworm = assay: bioactivity test against armyworm, airbrush spray; assay type: in vivo; conditions: mortality after 72 h

Cc1ncnc(NCCc2ccc(Oc3ccc(C(F)(F)F)cn3)cc2)c1Cl [Compound I-6763]
100%: protectant activity against wheat powdery mildew in vivo (wheat powdery mildew; 100 ppm) | protectant activity against wheat powdery mildew in vivo (wheat powdery mildew; 400 ppm) | protectant activity against corn rust in vivo (corn rust; 100 ppm) | protectant activity against corn rust in vivo (corn rust; 400 ppm) | inhibition at 25 ppm (rice blast) | control (test results against green peach aphid) ([1]; 10 ppm) | control (test results against green peach aphid) ([1]; 100 ppm) | control (test results against green peach aphid) ([1]; 600 ppm) | pest or weed control at 5 ppm ([1]; Myzus persicae, foliar, 48 h, 5 ppm) | control against carmine spider mite (carmine spider mite; 100 ppm) | control against carmine spider mite (carmine spider mite; 600 ppm) | control (test results against armyworm) (armyworm; 600 ppm) | pest or weed control at 100 ppm (armyworm; 72 h, 100 ppm)
